Laboratory results taken from patent publication US20140005275A1, “TOPICAL APPLICATION OF 1-HYDROXYL 3,5-BIS(4'HYDROXYL STYRYL)BENZENE” (priority 2012, published 2014).

What was measured:
[1] = tested on: NF-kB luciferase promoter; assay: NF-κB INHIBITION TEST (NF-kB luciferase reporter, TNFα-stimulated H9c2 cells); format: cell-based, Rat; conditions: TNFα 100 ng/ml, versus TNFα + Vehicle (0.1% DMSO)
Experimental: NFκB-INHIBITION TESTS were performed on various concentrations of 1-hydroxyl 3,5-bis(4′hydroxyl styryl)benzene and a vehicle control (DMSO). The 1-hydroxyl 3,5-bis(4′hydroxyl styryl)benzene was prepared as described in U.S. Pat. No. 7,745,670. The NF-κB INHIBITION TEST was conducted as follows. Rat cardiac myoblasts H9c2 cells were purchased from ATCC (Manassas, Va.). Cultures were maintained in Dulbecco's modified Eagle's medium (DMEM, Invitrogen Life Technologies, Carlsbad, Calif.) supplemented with 10% fetal bovine serum, 100 units/ml penicillin, and 50 ug/ml streptomycin (Invitrogen life technologies, Carlsbad, Calif.). 1×10^4 cells grown in 96-well plates were transiently transfected with 0.45 ug total DNA per well using Lipofectamine 2000 (Invitrogen life technologies, Carlsbad, Calif.). In all transfections, a construct with the thymidine kinase promoter and the Renilla luciferase reporter gene (pRL-TK, Promega, Madison Wis.) was included as an internal control in addition to the NF-kB luciferase promoter. One day after transfection, cells were treated with the indicated samples (in DMSO as vehicle) at indicated concentrations and stimulated with 100 ng/mL of Tumor Necrosis Factor-α (TNFα, Sigma-Aldrich, St Louis, Mo.) for approximately 24 hours before they were lysed for luciferase assays, using Dual-Luciferase Reporter System from Promega (Madison, Wis.), following manufacturer's protocol. Briefly, the firefly luciferase activity was measured first (representing NF-kB promoter activity), followed by the renilla luciferase (internal control), using luminometer LMAX, from Molecular Devices (Sunnyvale, Calif.). The ratio of these two luciferase activities (RLU) was used to evaluate the activity of each promoter: NF-κB Inhibition=[1−(RLUsample/RLUcontrol)]*100 where RLUsample and RLUcontrol are the normalized luciferase activity ratios of the sample and control, respectively. The results are shown in Table 1, in which NF-kB Gene Reporter Activation (Luminescence, L) is reported. Percent NF-kB Inhibition is also reported.

IL-8 cytokine release = assay: Anti-inflammatory activity: IL-8 cytokine release from epidermal equivalents after solar UV exposure; format: cell-based, human; conditions: for Change over vehicle alone (Normalized to 100) / % inhibition over UV treatment: IL-8 release; for Change over vehicle alone (Normalized to 100): 2 h before UV 70 kJ/m^2, 24 hours; for % inhibition over UV treatment: UV-exposed epidermal equivalents; for UV-induced inflammation (result in words): summary of Table 2
Experimental: The topical anti-inflammatory activities of 1-hydroxyl 3,5-bis(4′hydroxyl styryl)benzene and its piperazine salt were evaluated as follows.
Epidermal equivalents (EPI 200 HCF), multilayer and differentiated epidermis consisting of normal human epidermal keratinocytes, were purchased from MatTek (Ashland, Mass.). Upon receipt, epidermal equivalents were incubated for 24 hours at 37° C. in maintenance medium without hydrocortisone. Equivalents were topically treated (2 mg/cm^2) with 1-hydroxyl 3,5-bis(4′hydroxyl styryl)benzene thereof in a 70:30 Ethanol-Propylene glycol vehicle two hours before exposure to solar ultraviolet light (1000W-Oriel solar simulator equipped with a 1-mm Schott WG 320 filter; UV dose applied: 70 kJ/m^2 as measured at 360 nm). The equivalents were incubated for 24 hours at 37° C. with maintenance medium then supernatants were analyzed for IL-8 cytokine release using commercially available kits (Millipore Corp., Billerica, Mass.).

Collagen1A = assay: Induction of Collagen1A gene expression in primary human dermal fibroblasts (quantitative PCR); format: cell-based; conditions: for Collagen1A Normalized Fold-change in PCR (Mean): 0.1 ug/mL, 48 hr, normalized to GAPDH, from untreated
Experimental: (§1) Primary human dermal fibroblasts (Lifeline Cell Technologies, Frederick, Md.) were grown until confluence in DMEM media (Invitrogen/Life Technologies, Carlsbad, Calif.) with 10% FBS and 1% Penicillin-Streptomycin on 24 well tissue culture plates, followed by treatment with 1-hydroxyl 3,5-bis(4′hydroxyl styryl)benzene (0.1 ug/mL) with and without TNF-a for 48 hr. Post-treatment, cells were lysed using RLT buffer and total RNA was isolated using the RNeasy Mini Kit (Qiagen, Valencia, Calif.). Quantitative PCR was performed using the Gene Amp PCR System 9700 and 7500 Real Time PCR System cycler (Applied Biosystems)/Life Technologies, Carlsbad, Calif.). Elastin (Qiagen) and Collagenlal primers (custom sequence-sense: 5′-TCC-CCA-GCT-GTC-TTA-TGG-CT-3′ and anti-sense: 5′-CAG-GCA-CGG-AAA-TTC-CTC-C-3′) were used. The housekeeping gene GAPDH was used for normalization (custom primer sequence: F 5′-ATC-TCT-GCC-CCC-TCT-GCT-G-3′ and R 5′-ATG-GTT-CAC-ACC-CAT-GAC-GA-3′; Invitrogen/Life Technologies, Carlsbad, Calif.). Fold-changes in PCR (normalized to GAPDH) were calculated from untreated.

Elastin = assay: Induction of Elastin gene expression in primary human dermal fibroblasts (quantitative PCR); format: cell-based; conditions: for Elastin Normalized Fold-change in PCR (Mean): 0.1 ug/mL, 48 hr, normalized to GAPDH, from untreated
Experimental: as §1

MMP-9 = assay: Inhibition of TNF-α-induced MMP-9 levels in epidermal equivalents; format: cell-based, human; conditions: for Mean of MMP-9 Release: 2 hours before TNF-α (100 ng/mL), 48 hours
Experimental: The ability of 1-hydroxyl 3,5-bis(4′hydroxyl styryl)benzene to inhibit TNF-a induced MMP-9 levels was tested at different concentrations as follows. The formation of TNF-α induced MMP-9 is involved in the undesirable breakdown of extracellular matrix in human skin.
Epidermal equivalents (EPI 200 HCF) were purchased from MatTek (Ashland, Mass.). Upon receipt, the epidermal equivalents were incubated for 24 hours at 37° C. in maintenance medium without hydrocortisone. The equivalents were topically treated (2 mg/cm^2) with 1-hydroxyl 3,5-bis(4′hydroxyl styryl)benzene extracts in a 70% ethanol/30% propylene glycol vehicle 2 hours before treatment with TNF-α (100 ng/mL). the equivalents were incubated for 48 hours at 37° C. with maintenance medium then supernatants were analyzed for MMP-9 using commercially available kits (R&D Systems, Minneapolis, Minn.).

[2] = 0.5% topical (2 mg/cm^2) in 70:30 Ethanol-Propylene glycol
[3] = 1% topical (2 mg/cm^2) in 70:30 Ethanol-Propylene glycol

## Oc1ccc(/C=C/c2cc(O)cc(/C=C/c3ccc(O)cc3)c2)cc1 [1-Hydroxyl 3,5-bis(4′hydroxylstyryl)benzene]
[1]; 0.2 ug/ml
  Percent NF-kB Inhibition: 0.5%
[1]; 0.5 ug/ml
  Percent NF-kB Inhibition: 22.1%
[1]; 1 ug/ml
  Percent NF-kB Inhibition: 51.7%
[1]; 2 ug/ml
  Percent NF-kB Inhibition: 71.0%
[1]; 4 ug/ml
  Percent NF-kB Inhibition: 96.1%
IL-8 cytokine release; [2]
  Change over vehicle alone (Normalized to 100): 82 ± 21
IL-8 cytokine release; 0.5% topical
  % inhibition over UV treatment: 39%
IL-8 cytokine release; [3]
  Change over vehicle alone (Normalized to 100): 80 ± 26
IL-8 cytokine release; 1% topical
  % inhibition over UV treatment: 40%
IL-8 cytokine release
  UV-induced inflammation (result in words): strong reduction in UV-induced inflammation
Collagen1A; with TNF-α (10 ng/mL)
  Collagen1A Normalized Fold-change in PCR (Mean): 1.36
Collagen1A; without TNF-α
  Collagen1A Normalized Fold-change in PCR (Mean): 2.96
Collagen1A; summary of Tables 3A and 3B
  expression of genes associated with collagen production (result in words): increased the expression of genes associated with collagen and elastin production
Elastin; with TNF-α (10 ng/mL)
  Elastin Normalized Fold-change in PCR (Mean): 1.12
Elastin; without TNF-α
  Elastin Normalized Fold-change in PCR (Mean): 6.23
Elastin; summary of Tables 3A and 3B
  expression of genes associated with elastin production (result in words): increased the expression of genes associated with collagen and elastin production
MMP-9; 0.25% w/v topical (2 mg/cm^2)
  Mean of MMP-9 Release: 1392 ± 627 ng/mL
MMP-9; 0.5% w/v topical (2 mg/cm^2)
  Mean of MMP-9 Release: 1012 ± 249 ng/mL
MMP-9; Homo sapiens, 0.25% w/v topical, TNF-α 100 ng/mL, read-out: Percent Inhibition of MMP-9 Production (over TNF-α alone)
  inhibition at 0.25 % strength: 60.9%
MMP-9; Homo sapiens, 0.5% w/v topical, TNF-α 100 ng/mL, read-out: Percent Inhibition of MMP-9 Production (over TNF-α alone)
  inhibition at 0.5 % strength: 71.6%
MMP-9; summary of Table 4
  formation of TNF-α induced MMP-9 (result in words): inhibited the formation of TNF-α induced MMP-9

## Oc1ccc(C=Cc2cc(O)cc(C=Cc3ccc(O)cc3)c2)cc1 [1-hydroxyl 3,5-bis(4′hydroxylstyryl)benzene]
IL-8 cytokine release; [2]
  Change over vehicle alone (Normalized to 100): 85 ± 14
IL-8 cytokine release; 0.5% topical
  % inhibition over UV treatment: 37%
IL-8 cytokine release; [3]
  Change over vehicle alone (Normalized to 100): 81 ± 31
IL-8 cytokine release; 1% topical
  % inhibition over UV treatment: 40%
IL-8 cytokine release
  UV-induced inflammation (result in words): strong reduction in UV-induced inflammation
